Measured values reported in PubChem BioAssay AID743309 (Sanford-Burnham Center for Chemical Genomics, 2014).
Active and inactive are the calls of the source.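 Rule for the calls: active = IC50 at or below 20 µM; inactive = the rest.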

Target: Tyrosine-protein phosphatase non-receptor type 22 (Homo sapiens) (UniProt Q9Y2R2)
Assay: LYP phosphatase inhibition for selectivity, SAR follow-up, selectivity assay for LMPTP inhibitor project, biochemical, fluorescence, LYP catalytic domain (AID 743309)
Conditions: recombinant LYP catalytic domain, OMFP fluorescence

Sequence of Tyrosine-protein phosphatase non-receptor type 22 (Homo sapiens) (Q9Y2R2 whole entry, looked up, the tested form may be a part): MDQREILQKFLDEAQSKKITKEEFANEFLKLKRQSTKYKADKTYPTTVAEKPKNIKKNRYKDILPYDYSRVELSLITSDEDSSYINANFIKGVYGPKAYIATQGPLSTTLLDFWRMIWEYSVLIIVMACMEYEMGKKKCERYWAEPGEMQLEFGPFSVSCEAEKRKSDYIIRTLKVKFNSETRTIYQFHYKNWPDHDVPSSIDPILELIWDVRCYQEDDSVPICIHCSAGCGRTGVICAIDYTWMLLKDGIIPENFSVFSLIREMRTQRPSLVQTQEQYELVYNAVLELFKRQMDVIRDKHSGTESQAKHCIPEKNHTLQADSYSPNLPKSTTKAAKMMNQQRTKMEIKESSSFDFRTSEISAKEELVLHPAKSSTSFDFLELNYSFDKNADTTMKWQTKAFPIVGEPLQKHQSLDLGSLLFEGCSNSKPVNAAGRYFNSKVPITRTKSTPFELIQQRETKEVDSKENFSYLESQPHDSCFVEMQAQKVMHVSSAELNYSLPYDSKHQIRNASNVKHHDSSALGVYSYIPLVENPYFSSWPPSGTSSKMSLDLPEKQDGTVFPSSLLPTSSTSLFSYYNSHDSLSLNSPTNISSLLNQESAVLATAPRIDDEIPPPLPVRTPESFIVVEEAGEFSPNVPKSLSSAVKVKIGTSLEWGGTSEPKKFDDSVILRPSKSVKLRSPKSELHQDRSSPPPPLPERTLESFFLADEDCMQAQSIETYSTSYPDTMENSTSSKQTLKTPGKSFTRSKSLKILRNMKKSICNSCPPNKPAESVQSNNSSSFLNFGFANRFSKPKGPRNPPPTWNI

| IC50 | Structure (SMILES) |
| --- | --- |
| > 80 µM (inactive) | c1ccc(-c2nc(NCCCn3ccnc3)c3ccccc3n2)cc1 |
| > 80 µM (inactive) | Fc1ccc(-c2cc(NCCCN3CCCCC3)c3ccccc3n2)cc1 |
| 15.7 µM | Cc1c(CCC(=O)O)c(=O)oc2c(C)c(OCc3ccccc3Cl)ccc12 |
| > 80 µM (inactive) | c1ccc(-c2cc(NCCN3CCCCC3)c3ccccc3n2)cc1 |
| > 80 µM (inactive) | COc1ccccc1-c1cc(NCCCN2CCCCC2)c2ccccc2n1 |
| > 80 µM (inactive) | CN(C)CCNc1nc(-c2ccccc2)nc2ccccc12 |
| > 80 µM (inactive) | Clc1ccc(-c2cc(NCCCN3CCCCC3)c3ccccc3n2)cc1 |
| > 80 µM (inactive) | CN(C)CCNc1cc(-c2ccccc2)nc2ccccc12 |
| > 80 µM (inactive) | c1ccc(-c2nc(NCCN3CCOCC3)c3ccccc3n2)cc1 |
| > 80 µM (inactive) | Fc1ccccc1-c1nc(NC2CCCC2)c2ccccc2n1 |
| > 80 µM (inactive) | Cc1cccc(-c2nc(NCCCN3CCOCC3)c3ccccc3n2)c1 |
| > 80 µM (inactive) | c1ccc(-c2nc(N3CCSCC3)c3ccccc3n2)cc1 |
| > 80 µM (inactive) | Brc1ccc2nc(-c3ccccc3)cc(NCCCN3CCCCC3)c2c1 |
| > 80 µM (inactive) | Cc1ccc(-c2nc(NCc3cccnc3)c3ccccc3n2)cc1 |
| > 80 µM (inactive) | CC(C)CNc1nc(-c2ccccc2)nc2ccccc12 |
| > 80 µM (inactive) | Fc1ccccc1-c1nc(NCCCN2CCOCC2)c2ccccc2n1 |
| > 80 µM (inactive) | c1ccc(-c2cc(OCCCN3CCCCC3)c3ccccc3n2)cc1 |
| > 80 µM (inactive) | CCCCNc1nc(-c2ccccc2)nc2ccccc12 |
| > 80 µM (inactive) | Cc1ccc(-c2nc(NCCN3CCOCC3)c3ccccc3n2)cc1 |
| > 80 µM (inactive) | CC(C)OCCCNc1nc(-c2ccccc2)nc2ccccc12 |

| IC50 | Structure (SMILES) |
| --- | --- |
| > 80 µM (inactive) | CCc1nc(N)nc(N)c1-c1ccc(Cl)cc1 |
| > 80 µM (inactive) | c1ccc(-c2cc(NCCCN3CCCCC3)c3ccccc3n2)cc1 |
| > 80 µM (inactive) | Cc1ccc(-c2cc(NCCCN3CCCCC3)c3ccccc3n2)cc1 |
| > 80 µM (inactive) | c1ccc(-c2nc(NCCCN3CCOCC3)c3ccccc3n2)cc1 |
| > 80 µM (inactive) | Nc1nc(N)c(Cc2ccc(Cl)cc2Cl)c(N)n1 |
| > 80 µM (inactive) | Clc1cccc(-c2cc(NCCCN3CCCCC3)c3ccccc3n2)c1 |
| > 80 µM (inactive) | COc1ccccc1CNc1ncnc2ccsc12 |
| > 80 µM (inactive) | COc1cccc(-c2cc(NCCCN3CCCCC3)c3ccccc3n2)c1 |
| > 80 µM (inactive) | c1ccc(-c2nc(N3CCOCC3)c3ccccc3n2)cc1 |
| > 80 µM (inactive) | O=C(OCCNc1nc(-c2ccccc2)nc2ccccc12)c1cccnc1 |
| > 80 µM (inactive) | CC(C)Nc1nc(-c2ccccc2)nc2ccccc12 |
| > 80 µM (inactive) | c1ccc(-c2cc(NCCCN3CCOCC3)c3ccccc3n2)cc1 |
| > 80 µM (inactive) | c1ccc(-c2cc(N3CCCCC3)c3ccccc3n2)cc1 |
| > 80 µM (inactive) | COc1ccc(-c2cc(NCCCN3CCCCC3)c3ccccc3n2)cc1 |
| > 80 µM (inactive) | c1ccc(-c2nc(N3CCCCCC3)c3ccccc3n2)cc1 |
| > 80 µM (inactive) | c1ccc(-c2nc(N3CCCCC3)c3ccccc3n2)cc1 |
| > 80 µM (inactive) | c1ccc(-c2cc(NCCN3CCCC3)c3ccccc3n2)cc1 |
| > 80 µM (inactive) | c1ccc(-c2nc(N3CCCC3)c3ccccc3n2)cc1 |
| > 80 µM (inactive) | c1ccc(-c2nc(NC3CCCCC3)c3ccccc3n2)cc1 |
| > 80 µM (inactive) | c1ccc(-c2nc(NCCN3CCCCC3)c3ccccc3n2)cc1 |

| IC50 | Structure (SMILES) |
| --- | --- |
| > 80 µM (inactive) | Cc1ccc2nc(-c3ccccc3)cc(NCCCN3CCCCC3)c2c1 |
| > 80 µM (inactive) | c1ccc(-c2nc(NCCCN3CCCCC3)c3ccccc3n2)cc1 |
| > 80 µM (inactive) | Clc1cccc(Cl)c1Cn1cnc(=NCc2ccco2)c2[nH]cnc21 |
| > 80 µM (inactive) | c1ccc(-c2cc(SCCCN3CCCCC3)c3ccccc3n2)cc1 |
| > 80 µM (inactive) | CCN(CC)c1nc(-c2ccccc2)nc2ccccc12 |
| > 80 µM (inactive) | CC1CCN(c2nc(-c3ccccc3)nc3ccccc23)CC1 |
| > 80 µM (inactive) | O=C(OCCNc1nc(-c2ccccc2)nc2ccccc12)c1ccncc1 |
| > 80 µM (inactive) | c1ccc2c(NCCCN3CCCCC3)cc(-c3ccncc3)nc2c1 |
| > 80 µM (inactive) | c1ccc(-c2cc(NCCN3CCOCC3)c3ccccc3n2)cc1 |
| > 80 µM (inactive) | Clc1ccccc1-c1cc(NCCCN2CCCCC2)c2ccccc2n1 |
| > 80 µM (inactive) | Fc1cccc(-c2cc(NCCCN3CCCCC3)c3ccccc3n2)c1 |
| > 80 µM (inactive) | CN1CCN(c2nc(-c3ccccc3)nc3ccccc23)CC1 |
| > 80 µM (inactive) | Fc1ccc2nc(-c3ccccc3)cc(NCCCN3CCCCC3)c2c1 |
| > 80 µM (inactive) | c1ccc(-c2nc(NCCN3CCCC3)c3ccccc3n2)cc1 |
| > 80 µM (inactive) | COc1cc2nc(-c3ccccc3)cc(NCCCN3CCCCC3)c2cc1OC |
| > 80 µM (inactive) | FC(F)(F)c1cccc(-c2cc(NCCCN3CCCCC3)c3ccccc3n2)c1 |
| > 80 µM (inactive) | c1ccc(-c2nc(NCc3cccnc3)c3ccccc3n2)cc1 |
| > 80 µM (inactive) | c1ccc(-c2nc(NC3CCCC3)c3ccccc3n2)cc1 |
| > 80 µM (inactive) | c1ccc(-c2nc(NC3CC3)c3ccccc3n2)cc1 |
